Test [1] addresses T1, viral reverse transcriptase (Human immunodeficiency virus type 1 group M subtype B, UniProt P04585).
T1 construct: Viral reverse transcriptase is found in extracts from bacterial clones; made in house; host or cells: Escherichia coli (extracts of bacterial clones, by the procedure of Larder et al., EMBO J. 6:3133-3137, 1987)
Description: Viral reverse transcriptase inhibition, cell free assay. Format: biochemical, human immunodeficiency virus (HIV-1). The source says:
The utility of the diaromatic substituted piperazines (III), the anti-AIDS piperazines (IV) and the indoles (V) of this invention can be determined by their ability to inhibit viral reverse transcriptase, an enzyme essential for human immunodeficiency virus replication. This enzyme has characteristics which differentiate it from other known cellular polymerases and it is a unique enzyme which is not found in uninfected cells. Viral reverse transcriptase is found in extracts from bacterial clones prepared according to the procedure described in AIDS Virus Reverse Transcriptase defined by high level expression in Escherichia coli, EMBO J. 6:3133-3137 (1987). Inhibition of this enzyme is determined in a cell free assay which measures the level of radioactive precursors incorporated into DNA. Extracts prepared according to the procedure of Science, 1125-1129 (1981) are incubated in a mixture of inhibitor, 20 mM dithiothreitol, 60 mM sodium chloride, 0.05% NP-40, 10 mM magnesium chloride, 50 mM Tris pH 8.3, 10 μM [^35 S]-labeled deoxynuleoside-5'-triphosphate, 10 μg/ml RNA template (poly rC or poly rG) and 5 μg/ml DNA primer (oligo dG or oligo dT) for 30 minutes at 37° C. Incorporation of radio-labeled percursor is determined by spotting aliquots of the reaction mixture on DE81 paper, washing the papers to remove unincorporated percursor, drying and determining counts. The results (IC50 means the concentration, in μM of drug, required to inhibit the reverse transcriptase activity to the extent of 50%) of various assay(s) are combined and reported as % inhibition and IC50 (calculated).
^1 Viral reverse transcriptase is found in extracts from bacterial
clones prepared according to the procedure described by Larder, B.,
Purifoy D., Powell, K. and Darby, G., AIDS virus reverse transcriptase
defined by high level expression in Escherichia coli., EMBO J. 6,
3133-3137 (1987). Inhibition of this enzyme is determined in a cell free
assay which measures the level of radioactive precursors incorporated int
DNA. Extracts prepared according to the procedure of Kleid, D. G., et
al., Science, 1125-1129 (1981) are incubated in a mixture of inhibitor, 2
mM dithiothreitol, 60 mM sodium chloride, 0.05% NP40, 10 mM magnesium
chloride, 50 mM Tris pH 8.3, 10 μM [^35 Slabeled
deoxynucleoside5triphosphate, 10 μg/ml RNA template (poly rC or poly
rG) and 5 μg/ml DNA primer (oligo dG or oligo dT) for 15 minutes at
37°. Incorporation of radio labeled precursor is determined by
harvesting the trichloroacetic acid precipitated reaction mixtures on
glass fiber filters, drying, and determining counts. The results of
various assays are combined and reported as % inhibition at a 100 μM

For test [2], the system named is HIV in primary human peripheral blood lymphocytes. Description: Primary PBL assay: inhibition of viral replication (p24 & RNA). The class given is cell-based. To be noted: primary human lymphocytes infected with HIV, days three and four, read-out: PBL INHIBITION OF VIRAL REPLICATION (p24 & RNA) ED50. As to the method: ^3 The utility of the compounds of the invention is further
infection in primary peripheral blood lymphocytes (primary PBL assay). Th
primary PBL assay offers the following advantages:
(a) The assays are performed with primary human lymphocytes. Thereby,
undesired testing of transformed cell lines is avoided in which host cell
and virus may have undergone processes of mutual adaptation. Performance
of cell culture in serum containing media closely mimics the in vivo
situation. (b) The primary PBL assay distinguishes between true antiviral
effect which is due to the drug and cytostatic/cytotoxic reactions. (c)
Viral replication is precisely followed by kinetic measurement of viral
nucleic acids and proteins. (d) Nucleic acids (total HIVRNA intra and
extracellular) and protein (secreted p24) are measured in parallel which
permits one to differentiate between the compound's effect on virus
replication and on the expression of viral proteins. This leads to
additional information regarding the efficacy of the test compound. (e)
Tolerance of the cell culture against low amounts of organic solvents als
permits the investigation of hydrophobic substances. (f) The dose of the
drug causing half maximal suppression of virus replication is determined.
(g) The screening system is standardized and automated to a high degree.
The primary PBL assay uses the following procedure:
Effects of the compounds of the invention on cell proliferation are determined by lymphocyte proliferation assays. Starting with a 100 micromolar solution, the compound is serially diluted 10 fold. One tenth of the concentration of a compound causing half maximal inhibition of cellular proliferation is employed for all subsequent testing.
Peripheral human lymphocytes are isolated by density gradient centrifugation. After stimulation by mitogen the cells are infected with a standardized preparation of HIV. Subsequently, the infected cells are cultured in the presence of the drug for four days. Individual cultures are established to measure viral replication three and four days following infection. Untreated cells and AZT-treated cells are included as controls in parallel with the drugs under investigation.
The amount of viral core protein p24 synthesized and release by the infected cells is determined in the supernatant by the capture-ELISA technique on days three and four. By comparing with a standard preparation, the amount of protein produced by the virus infected cells is quantified.
The total amount of viral RNA synthesized by the infected lymphocytes is determined by a special nucleic acid hybridization on days three and four of culture. By including a standard preparation of HIV-RNA the amount of synthesized RNA is quantified.
In addition, viability of HIV-infected cells is determined in parallel with assays for viral p24 and RNA. In order to evaluate the half maximal antiviral effect of the drug, a concentration dependency of the drug action is measured.
Numerous examples of the compounds of the invention are assayed according to this procedure. The anti-HIV activity, as measured by the inhibition of the release of core p24 protein in HIV infected human lymphocytes, is used to calculate ED50 -antiviral (the concentration required to give a 50% reduction in p24 synthesis).

Where [3] appears, read: read-out: RT % INHIBITION (100 μM), 100 μM, poly rC or poly rG template.
Setting [4] is: Human immunodeficiency virus 1, Lymphocyte.

The structures appear in SMILES notation. Like-named read-outs stand apart in the source and are kept apart here.

This is an account of results in patent publication US5563142A, “Diaromatic substituted compounds as anti-HIV-1 agents” (The Upjohn Company, priority 1994, dated 1996).

A word on the inhibition: it is the change of the read-out against control, counted positive when it falls.

With `CCNc1cccnc1N1CCN(C(=O)c2cc3ccc(OC)c(C)c3[nH]2)CC1` [Example 71, 1-[6-Methoxy-7-methylindolyl-2-carbonyl]-4-(3-ethylamino-2-pyridinyl)piperazine], the inhibition at 100 µM in test [1] (setting [3]) was in the range of 88 to 95%. In addition, the EC50 in test [2] (setting [4]) was 10 to 100 nM.

Regarding `CC(C)Nc1cccnc1N1CCN(C(=O)c2cc3cc(OCc4ccccc4)ccc3[nH]2)CC1` [Example 36, 1-[5-Benzyloxyindolyl-2-carbonyl]-4-[3-(1-methylethyl)amino-2-pyridinyl]piperazine], the inhibition at 100 µM in test [1] (setting [3]) was 69 to 84%. For the same compound, the EC50 in test [2] (setting [4]) stood at 10 nM.

Take `CC(C)Nc1ccc(F)cc1N1CCN(C(=O)c2cc3ccccc3[nH]2)CC1` [Example 75, 1-[Indolyl-2-carbonyl]-4-[2-(1-methylethylamino)-5-fluorophenyl]piperazine]: the inhibition at 100 µM in test [1] (setting [3]) worked out at 77%. For the same compound, the EC50 in test [2] (setting [4]) lay within 10 to 100 nM.

On to `O=C(c1cc2ccccc2[nH]1)N1CCN(c2ncccc2N2CCCC2)CC1` [Example 76, 1-[Indolyl-2-carbonyl]-4-[3-(1-pyrrolidinyl)-2-pyridinyl]piperazine], for which the inhibition at 100 µM in test [1] (setting [3]) lay in the range of 65 to 76%. Moreover, in test [2] (setting [4]), the EC50 was 100 to 1000 nM.

Consider `CC(C)Nc1cccnc1N1CCN(C(=O)c2cc3cc(NS(C)(=O)=O)ccc3[nH]2)CC1` [Example 105, 1-[5-Methanesulfonamidoindolyl-2-carbonyl]-4-[3-(1-methylethylamino)-2-pyridinyl]piperazine], for which the inhibition at 100 µM in test [1] (read-out: RT % INHIBITION (100 μM)) is 82 to 96%. In addition, the EC50 in test [2] (setting [4]) is no more than 1 nM.

For the compound `CC(=O)Nc1ccc2[nH]c(C(=O)N3CCN(c4ncccc4NC(C)C)CC3)cc2c1` [Example 104, 1-[5-Acetamidoindolyl-2-carbonyl]-4-[3-(1-methylethylamino)-2-pyridinyl]piperazine], the inhibition at 100 µM in test [1] (setting [3]) was 92 to 96%. The EC50 in test [2] (setting [4]) was 10 nM.

Regarding `COc1ccc2cc(C(=O)N3CCN(c4ncccc4NC(C)C)CC3)[nH]c2c1Br` [Example 92, 1-[7-Bromo-6-methoxyindolyl-2-carbonyl]-4-[3-(1-methylethyl-amino)-2-pyridinyl]piperazine], the inhibition at 100 µM in test [1] (setting [3]) was found to be 94%. Further, in test [2] (setting [4]), the EC50 was 100 to 1000 nM.

In the case of `CNc1cccnc1N1CCN(C(=O)c2cc3cc(F)ccc3[nH]2)CC1` [Example 63, 1-(5-Fluoroindolyl-2-carbonyl)-4-[3-methylamino-2-pyridinyl]piperazine], in test [1] (setting [3]), the inhibition at 100 µM was in the range of 82 to 88%. Moreover, the EC50 in test [2] (setting [4]) came to 1000 nM.

Consider `CC(C)Nc1nccnc1N1CCN(C(=O)c2cc3cc(F)ccc3[nH]2)CC1` [Example 47, 1-(5-Fluoroindolyl-2-carbonyl)-4-[3-(1-methylethylamino)-2-pyrazinyl]piperazine], for which the inhibition at 100 µM in test [1] (setting [3]) was determined as 91%. Moreover, the EC50 in test [2] (setting [4]) lay in the range of 1 to 10 nM.

Take `CC(C)Nc1cccnc1N(C)CCCCCCN(C)C(=O)c1cc2ccccc2[nH]1` [Example 54, N,N'-Dimethyl-N-(indolyl-2-carbonyl)-N'-[3-(1-methylethyl-amino)-2-pyridinyl]-1,6-hexanediamine]: the inhibition at 100 µM in test [1] (setting [3]) is 70 to 80%. Further, the EC50 in test [2] (setting [4]) worked out at 100 nM.

With `CC(C)Nc1cccnc1N(C)CCCCN(C)C(=O)c1cc2ccccc2[nH]1` [Example 124, N,N'-Dimethyl-N-(indolyl-2-carbonyl)-N'-[3-(1-methylethyl-amino)-2-pyridyl]-1,4-butanediamine], in test [1] (setting [3]), the inhibition at 100 µM stood at 95%. Also, the EC50 in test [2] (setting [4]) is greater than 100 nM.

Take `COc1cc2cc(C(=O)N3CCN(c4ncccc4NC(C)C)CC3)[nH]c2cc1OC` [Example 72, 1-[5,6-Dimethoxyindolyl-2-carbonyl]-4-[3-(1-methylethylamino)-2-pyridinyl]piperazine]: the inhibition at 100 µM in test [1] (setting [3]) lay in the range of 43 to 66%. Further, the EC50 in test [2] (setting [4]) was less than 10 nM.

As for `CC(C)Nc1cccnc1N1CCN(C(=O)c2cc3cc4c(cc3[nH]2)OCO4)CC1` [Example 90, 1-[5,6-Methylenedioxyindolyl-2-carbonyl]-4-[3-(1-methylethylamino)-2-pyridinyl]piperazine], the inhibition at 100 µM in test [1] (setting [3]) worked out at 96%. Further, the EC50 in test [2] (setting [4]) is less than 1 nM.

On to `CC(C)Nc1cccnc1N(C)CCOC(=O)c1cc2ccccc2[nH]1` [Example 55], for which, in test [1] (setting [3]), the inhibition at 100 µM lay within 66 to 79%. Moreover, the EC50 in test [2] (setting [4]) lay within 100 to 1000 nM.

With `COc1ccc2cc(C(=O)N3CCN(c4ncccc4NC(C)C)CC3)[nH]c2c1` [Example 87, 1-[6-Methoxyindolyl-2-carbonyl]-4-[3-(1-methylethylamino)-2-pyridinyl]-piperazine], the inhibition at 100 µM in test [1] (setting [3]) fell in the range of 96 to 98%. Further, in test [2] (setting [4]), the EC50 was determined as 10 nM.

As for `Cc1cccc2[nH]c(C(=O)N3CCN(c4ncccc4NC(C)C)CC3)cc12` [Example 97, 1-[4-Methylindolyl-2-carbonyl]-4-[3-(1-methylethylamino)-2pyridinyl]-piperazine], in test [1] (setting [3]), the inhibition at 100 µM is 52 to 80%. Also, the EC50 in test [2] (setting [4]) was no more than 10 nM.

For the compound `CCOC(=O)COc1ccc2[nH]c(C(=O)N3CCN(c4ncccc4NC(C)C)CC3)cc2c1` [Example 60, 1-[5-(Ethoxycarbonylmethoxy)indolyl-2-carbonyl]-4-[3-(1-methylethylamino)-2-pyridinyl]piperazine], in test [1] (setting [3]), the inhibition at 100 µM fell in the range of 89 to 92%. Besides, the EC50 in test [2] (setting [4]) was in the range of 100 to 1000 nM.

With `CCNc1cccnc1N1CCN(C(=O)c2cc3cc(OC)ccc3[nH]2)CC1` [Example 16, 1-[5-Methoxyindolyl-2-carbonyl]-4-[3-(ethylamino)-2-pyridinyl]piperazine], the inhibition at 100 µM in test [1] (setting [3]) lay within 85 to 88%. Besides, in test [2], the EC50 is 3 nM.

Regarding `CC(C)Nc1cccnc1N1CCN(C(=O)c2cc3cc(O)ccc3[nH]2)CC1` [Example 38, 1-[5-Hydroxyindolyl-2-carbonyl]-4-[3-(1-methylethylamino)-2-pyridinyl]piperazine], in test [1] (setting [3]), the inhibition at 100 µM was 96 to 98%. In test [2] (setting [4]), the EC50 is less than 1 nM.

As to `CC(C)Nc1cccnc1N1CCCN(C(=O)c2cc3cc(F)ccc3[nH]2)CC1` [Example 84], the inhibition at 100 µM in test [1] (setting [3]) came out at 97%. Also, the EC50 in test [2] (setting [4]) is less than 1 nM.
